Results published in patent US10766869B2, “Triazoles for the treatment of demyelinating dieases” (Vertex Pharmaceuticals Incorporated, priority 2015, dated 2020).

Test system: primary rat mixed cortical cells
Test: In vitro myelination assay (MBP positive myelin strands, fold myelin pixels above background)
Format: cell-based
Conditions: Rattus norvegicus, relative to baseline of no added compound; for fold induction at 1 µM: 1.0 μM compound, read-out: Fold myelin pixels above background, 1.0 μM; for fold induction at 10 µM: 10.0 μM compound, read-out: Fold myelin pixels above background, 10.0 μM
Summary of the method: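 P1 rat cortical cells (neurons, OPCs, oligodendrocytes, astrocytes, microglia) were cultured 14 days at 37 °C with compound, with half-medium changes containing 1× compound on days 6 and 10. Fixed cells were immunostained for MBP and imaged at 10×. Total MBP myelin pixels per well were expressed as fold above no-compound baseline at 1.0 μM and 10.0 μM.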

SMILES	fold induction at 1 µM	fold induction at 10 µM
Cc1cc(Nc2ncn(-c3cc(F)c(C#N)cc3F)n2)cc(N2CCN(C3COC3)CC2)c1 [Compound 66, 2,5-difluoro-4-[3-[3-methyl-5-[4-(oxetan-3-yl)piperazin-1-yl]anilino]-1,2,4-triazol-1-yl]benzonitrile]	10 to 100	10 to 100
Cc1cc(Nc2ncn(-c3cc(F)cc(F)c3)n2)cc(N2CCN(C3COC3)CC2=O)c1 [Compound 67, 1-[3-[[1-(3,5-difluorophenyl)-1,2,4-triazol-3-yl]amino]-5-methyl-phenyl]-4-(oxetan-3-yl)piperazin-2-one]	1 to 10	10 to 100
Cc1cc(Nc2ncn(-c3cnccn3)n2)cc(N2CCN(C)CC2)c1 [Compound 68, N-[3-methyl-5-(4-methylpiperazin-1-yl)phenyl]-1-pyrazin-2-yl-1,2,4-triazol-3-amine]	100 to 1000	1000 to 10000
CCc1cc(Nc2ncn(-c3ccc(F)c(F)c3)n2)cc(N2CCN(C3COC3)CC2)c1 [Compound 69, 1-(3,4-difluorophenyl)-N-[3-ethyl-5-[4-(oxetan-3-yl)piperazin-1-yl]phenyl]-1,2,4-triazol-3-amine]	1000 to 10000	10 to 100
Cc1ccc(-n2cnc(Nc3cc(C)cc(N4CCN(C5COC5)CC4)c3)n2)cc1 [Compound 70, N-[3-methyl-5-[4-(oxetan-3-yl)piperazin-1-yl]phenyl]-1-(p-tolyl)-1,2,4-triazol-3-amine]	≤ 1	10 to 100
Cc1cc(Nc2ncn(-c3ccccc3)n2)cc(C2CCN(C3COC3)CC2)c1 [Compound 71, N-[3-methyl-5-[1-(oxetan-3-yl)-4-piperidyl]phenyl]-1-phenyl-1,2,4-triazol-3-amine]	1000 to 10000	≤ 1
CCOC(=O)CN1CCN(c2cc(C)cc(Nc3ncn(-c4cc(F)cc(F)c4)n3)c2)CC1 [Compound 72, ethyl 2-[4-[3-[[1-(3,5-difluorophenyl)-1,2,4-triazol-3-yl]amino]-5-methyl-phenyl]piperazin-1-yl]acetate]	10 to 100	1 to 10
Cc1cc(F)cc(-n2cnc(Nc3cc(C4CC4)cc(N4CCN(C5COC5)CC4)c3)n2)c1 [Compound 73, N-[3-cyclopropyl-5-[4-(oxetan-3-yl)piperazin-1-yl]phenyl]-1-(3-fluoro-5-methyl-phenyl)-1,2,4-triazol-3-amine]	100 to 1000	≤ 1
Cc1cc(Nc2ncn(-c3cnccn3)n2)cc(C2CCCN(C3COC3)C2)c1 (stereo not shown) [Compound 74, N-[3-methyl-5-[1-(oxetan-3-yl)-3-piperidyl]phenyl]-1-pyrazin-2-yl-1,2,4-triazol-3-amine]	100 to 1000	100 to 1000
Cc1cc(Nc2ncn(-c3cnccn3)n2)cc(N2CCN(C3CC(F)(F)C3)CC2)c1 [Compound 75, N-[3-[4-(3,3-difluorocyclobutyl)piperazin-1-yl]-5-methyl-phenyl]-1-pyrazin-2-yl-1,2,4-triazol-3-amine]	≤ 1	100 to 1000
Cc1cc(Nc2ncn(-c3ccccc3)n2)cc(N2CCN(C)C(=O)C2)c1 [Compound 76, 1-methyl-4-[3-methyl-5-[(1-phenyl-1,2,4-triazol-3-yl)amino]phenyl]piperazin-2-one]	100 to 1000	100 to 1000
Cc1cc(Nc2ncn(-c3cc(F)cc(F)c3)n2)cc(N2CCNCC2)c1 [Compound 77, 1-(3,5-difluorophenyl)-N-(3-methyl-5-piperazin-1-yl-phenyl)-1,2,4-triazol-3-amine]	100 to 1000	≤ 1
Cc1cc(Nc2ncn(-c3cc(F)cc(F)c3)n2)cc(N2C[C@@H]3C[C@H]2CN3C2CC2)c1 [Compound 78, N-[3-[(1S,4S)-2-cyclopropyl-2,5-diazabicyclo[2.2.1]heptan-5-yl]-5-methyl-phenyl]-1-(3,5-difluorophenyl)-1,2,4-triazol-3-amine]	100 to 1000	≤ 1
Cc1cc(Nc2ncn(-c3cc(F)cc(F)c3)n2)cc(N2CCN(C(CO)CO)CC2)c1 [Compound 79, 2-[4-[3-[[1-(3,5-difluorophenyl)-1,2,4-triazol-3-yl]amino]-5-methyl-phenyl]piperazin-1-yl]propane-1,3-diol]	10 to 100	≤ 1
Fc1cc(Nc2ncn(-c3ccccc3)n2)cc(N2CCOCC2)c1 [Compound 80, N-(3-fluoro-5-morpholino-phenyl)-1-phenyl-1,2,4-triazol-3-amine]	10 to 100	1000 to 10000
Cc1cc(Nc2ncn(-c3ccc(C#N)cc3)n2)cc(N2CCN(C)CC2)c1 [Compound 81, 4-[3-[3-methyl-5-(4-methylpiperazin-1-yl)anilino]-1,2,4-triazol-1-yl]benzonitrile]	1 to 10	≤ 1

SMILES	fold induction at 1 µM	fold induction at 10 µM
Fc1cc(F)cc(-n2cnc(Nc3cc(C(F)F)cc(N4CCN(C5COC5)CC4)c3)n2)c1 [Compound 82, N-[3-(difluoromethyl)-5-[4-(oxetan-3-yl)piperazin-1-yl]phenyl]-1-(3,5-difluorophenyl)-1,2,4-triazol-3-amine]	1000 to 10000	100 to 1000
Fc1cc(Nc2ncn(-c3ccccc3F)n2)cc(N2CCCC2)c1 [Compound 83, 1-(2-fluorophenyl)-N-(3-fluoro-5-pyrrolidin-1-yl-phenyl)-1,2,4-triazol-3-amine]	≤ 1	10 to 100
Cc1cc(Nc2ncn(-c3ccncc3)n2)cc(N2CCOCC2)c1 [Compound 84, N-(3-methyl-5-morpholino-phenyl)-1-(4-pyridyl)-1,2,4-triazol-3-amine]	1000 to 10000	10 to 100
Fc1cc(-n2cnc(Nc3cc(C(F)F)cc(N4CCOCC4)c3)n2)ccn1 [Compound 85, N-[3-(difluoromethyl)-5-morpholino-phenyl]-1-(2-fluoro-4-pyridyl)-1,2,4-triazol-3-amine]	100 to 1000	100 to 1000
COc1cccc(-n2cnc(Nc3cc(C)cc(N4CCN(C5COC5)CC4)c3)n2)c1 [Compound 86, 1-(3-methoxyphenyl)-N-[3-methyl-5-[4-(oxetan-3-yl)piperazin-1-yl]phenyl]-1,2,4-triazol-3-amine]	100 to 1000	100 to 1000
Cc1cc(Nc2ncn(-c3ccccc3)n2)cc(N2CCN(C3CCCC3)CC2)c1 [Compound 87, N-[3-(4-cyclopentylpiperazin-1-yl)-5-methyl-phenyl]-1-phenyl-1,2,4-triazol-3-amine]	100 to 1000	100 to 1000
Fc1ccc(-n2cnc(Nc3cc(C4CC4)nc(N4CCOCC4)c3)n2)cc1F [Compound 88, 2-cyclopropyl-N-[1-(3,4-difluorophenyl)-1,2,4-triazol-3-yl]-6-morpholino-pyridin-4-amine]	1000 to 10000	1000 to 10000
Cc1cc(Nc2ncn(-c3ccccc3)n2)cc(N2CCS(=O)(=O)CC2)c1 [Compound 89, N-[3-(1,1-dioxo-1,4-thiazinan-4-yl)-5-methyl-phenyl]-1-phenyl-1,2,4-triazol-3-amine]	1000 to 10000	100 to 1000
CC(=O)N1CCC(c2cc(C)cc(Nc3ncn(-c4cc(F)cc(F)c4)n3)c2)CC1 [Compound 90, 1-[4-[3-[[1-(3,5-difluorophenyl)-1,2,4-triazol-3-yl]amino]-5-methyl-phenyl]-1-piperidyl]ethanone]	100 to 1000	1 to 10
CCc1cc(Nc2ncn(-c3ccnc(C)n3)n2)cc(N2CCN(C3COC3)CC2)c1 [Compound 91, N-[3-ethyl-5-[4-(oxetan-3-yl)piperazin-1-yl]phenyl]-1-(2-methylpyrimidin-4-yl)-1,2,4-triazol-3-amine]	≤ 1	100 to 1000
Cc1cc(Nc2ncn(-c3cc(F)cc(F)c3)n2)cc(N2CCNCC2=O)c1 [Compound 93, 1-[3-[[1-(3,5-difluorophenyl)-1,2,4-triazol-3-yl]amino]-5-methyl-phenyl]piperazin-2-one]	10 to 100	100 to 1000
COc1cccc(-n2cnc(Nc3cc(C)cc(N4CCN(C)CC4)c3)n2)c1 [Compound 94, 1-(3-methoxyphenyl)-N-[3-methyl-5-(4-methylpiperazin-1-yl)phenyl]-1,2,4-triazol-3-amine]	100 to 1000	1 to 10
Cc1cc(Nc2ncn(-c3cc(F)cc(F)c3)n2)cc(N2CCN(C3CSC3)CC2)c1 [Compound 95, 1-(3,5-difluorophenyl)-N-[3-methyl-5-[4-(thietan-3-yl)piperazin-1-yl]phenyl]-1,2,4-triazol-3-amine]	10 to 100	≤ 1
CN1CCN(c2cc(Nc3ncn(-c4ccncn4)n3)cc(C(F)(F)F)c2)CC1 [Compound 96, N-[3-(4-methylpiperazin-1-yl)-5-(trifluoromethyl)phenyl]-1-pyrimidin-4-yl-1,2,4-triazol-3-amine]	100 to 1000	100 to 1000
CC(C)(C)c1cc(Nc2ncn(-c3cccc(F)c3)n2)cc(N2CCN(C3COC3)CC2)c1 [Compound 97, N-[3-tert-butyl-5-[4-(oxetan-3-yl)piperazin-1-yl]phenyl]-1-(3-fluorophenyl)-1,2,4-triazol-3-amine]	100 to 1000	100 to 1000
CN1CCCN(c2cc(F)cc(Nc3ncn(-c4cccc(F)c4)n3)c2)CC1 [Compound 98, N-[3-fluoro-5-(4-methyl-1,4-diazepan-1-yl)phenyl]-1-(3-fluorophenyl)-1,2,4-triazol-3-amine]	10 to 100	≤ 1
